# Assay results from patent US3954972A, “Antibiotic A-26771 factor” (Eli Lilly and Company, priority 1975, dated 1976).
# Entries after “also recorded” stand apart in the source; their conditions may differ. Like-named read-outs stand apart in the source and are kept apart here.
# Assays:
# Type III poliovirus = test: microbe, parasite or virus in culture; type: cell-based
# [1] = system: Saccharomyces pastorianum; test: microbe, parasite or virus in culture; type: cell-based
# Neurospora crassa = test: microbe, parasite or virus in culture; type: cell-based
# [2] = system: Trichophyton mentagrophytes; test: microbe, parasite or virus in culture; type: cell-based
# White Swiss mice = test: survival of mice after intraperitoneal injection; conditions: groups of four mice
# Staphylococcus aureus [3] = test: microbe, parasite or virus in culture; type: cell-based
# [4] = system: Coxsackie virus A-21 (COE strain); test: microbe, parasite or virus in culture; type: cell-based; conditions: read-out: diameter of zone of virus inhibition
# Candida albicans = test: microbe, parasite or virus in culture; type: cell-based
# [5] = system: several viruses, including polioviruses and Coxsackie virus; type: cell-based
# Klebsiella pneumoniae = test: microbe, parasite or virus in culture; type: cell-based
# poliovirus III = type: in vivo, mice; conditions: for Z (zone diameter of viral inhibition by serum): BSC1 cells
# Fusarium moniliforme = test: microbe, parasite or virus in culture; type: cell-based; conditions: Fusarium verticillioides
# electrometric titration = type: physicochemical; conditions: 66 percent dimethylformamide
# Mycobacterium avium = test: disc-plate assay, Mycobacterium avium; type: cell-based
# Escherichia coli = test: microbe, parasite or virus in culture; type: cell-based
# Bacillus subtilis = test: microbe, parasite or virus in culture; type: cell-based
# Sarcina lutea = test: microbe, parasite or virus in culture; type: cell-based; conditions: Micrococcus luteus
# Serratia marcescens = test: microbe, parasite or virus in culture; type: cell-based
# Mycoplasma synoviae = test: microbe, parasite or virus in culture; conditions: Mycoplasmopsis synoviae
# Xanthomonas phaseoli = test: microbe, parasite or virus in culture
# Candida tropicalis = test: microbe, parasite or virus in culture
# Pasteurella multocida = test: microbe, parasite or virus in culture
# Ceratocystis ulmi = test: in vitro susceptibility (MIC), Ceratocystis ulmi; type: cell-based
# Mycoplasma granularum = test: microbe, parasite or virus in culture; conditions: Acholeplasma granularum
# Staphylococcus aureus [6] = test: microbe, parasite or virus in culture
# Erwinia amylovora = test: microbe, parasite or virus in culture
# Mycoplasma hyosynoviae = test: microbe, parasite or virus in culture
# Botrytis cinerea = test: in vitro susceptibility (MIC), Botrytis cinerea; type: cell-based
# Mycoplasma hyopneumoniae = test: microbe, parasite or virus in culture; conditions: Mesomycoplasma hyopneumoniae
# Streptococcus faecalis = test: microbe, parasite or virus in culture; conditions: Enterococcus faecalis
# Vibrio coli = test: microbe, parasite or virus in culture; conditions: Campylobacter coli
# [7] = system: Trichophyton mentagrophytes; test: microbe, parasite or virus in culture
# Verticillium albo-atrum = test: in vitro susceptibility (MIC), Verticillium albo-atrum; type: cell-based
# Mycoplasma gallisepticum = test: microbe, parasite or virus in culture; conditions: Mycoplasmoides gallisepticum
# [8] = Enterovirus C, read-out: diameter of zone of virus inhibition
# [9] = 29 mg./kg. intraperitoneal, One Hour
# [10] = 29 mg./kg. intraperitoneal, Six Hours
# [11] = 58 mg./kg. intraperitoneal, One Hour
# [12] = 58 mg./kg. intraperitoneal, Six Hours
# [13] = 117 mg./kg. intraperitoneal, One Hour
# [14] = 234 mg./kg. intraperitoneal, One Hour
# [15] = Enterovirus C; read-out: diameter of zone of virus inhibition
smiles,measurement,setting,value
"CN1C(=O)C2(Cc3ccccc3)SSC1(CO)C(=O)N2C (single isomer, unassigned) [Factor A, 3-benzyl-6-(hydroxymethyl)-1,4-dimethyl-3,6-epidithio-2,5-piperazinedione]",zone of inhibition at 1.5 µg/mL,Type III poliovirus; [8],16 mm
same,zone of inhibition at 3.2 µg/mL,Type III poliovirus; [8],24 mm
same,zone of inhibition at 7.5 µg/mL,Type III poliovirus; [8],30 mm
same,zone of inhibition at 15 µg/mL,Type III poliovirus; [8],34 mm
same,zone of inhibition at 31.1 µg/mL,Type III poliovirus; [8],38 mm
same,zone of inhibition at 62.2 µg/mL,Type III poliovirus; [8],40 mm
same,zone of inhibition at 125 µg/mL,Type III poliovirus; [8],44 mm
same,zone of inhibition at 250 µg/mL,Type III poliovirus; [8],46 mm
same,zone of inhibition at 500 µg/mL,Type III poliovirus; [8],50 mm
same,zone of inhibition at 1000 µg/mL,Type III poliovirus; [8],50 mm
same,zone of inhibition at 100 µg/mL,[1],19 mm
same,zone of inhibition at 1000 µg/mL,[1],32 mm
same,zone of inhibition at 100 µg/mL,Neurospora crassa,13 mm
same,zone of inhibition at 1000 µg/mL,Neurospora crassa,27 mm
same,zone of inhibition at 100 µg/mL,[2],19 mm
same,zone of inhibition at 1000 µg/mL,[2],27 mm
same,Survivors,White Swiss mice; [9],4
same,Survivors,White Swiss mice; [10],4
same,Survivors,White Swiss mice; [11],4
same,Survivors,White Swiss mice; [12],4
same,Survivors,White Swiss mice; [13],4
same,Survivors,"White Swiss mice; 117 mg./kg. intraperitoneal, Six Hours",0
same,Survivors,White Swiss mice; [14],4
same,Survivors,"White Swiss mice; 234 mg./kg. intraperitoneal, Six Hours",0
same,zone of inhibition at 100 µg/mL,Staphylococcus aureus [3],12 mm
same,zone of inhibition at 1000 µg/mL,Staphylococcus aureus [3],23 mm
same,zone of inhibition at 1.5 µg/mL,[4],15 mm
same,zone of inhibition at 3.2 µg/mL,[4],20 mm
same,zone of inhibition at 7.5 µg/mL,[4],26 mm
same,zone of inhibition at 15 µg/mL,[4],32 mm
same,zone of inhibition at 31.1 µg/mL,[4],35 mm
same,zone of inhibition at 62.2 µg/mL,[4],38 mm
same,zone of inhibition at 125 µg/mL,[4],40 mm
same,zone of inhibition at 250 µg/mL,[4],45 mm
same,zone of inhibition at 500 µg/mL,[4],50 mm
same,zone of inhibition at 1000 µg/mL,[4],52 mm
same,zone of inhibition at 1000 µg/mL,Candida albicans,28 mm
same,antiviral activity,[5]; tissue culture,"demonstrated against several viruses, including polioviruses and Coxsackie virus; also recorded: antiviral agents; also recorded: antiviral activity"
same,zone of inhibition at 1000 µg/mL,Klebsiella pneumoniae,12 mm
same,Z (zone diameter of viral inhibition by serum),poliovirus III; [9],20 millimeters
same,Z (zone diameter of viral inhibition by serum),poliovirus III; [10],18 millimeters
same,Z (zone diameter of viral inhibition by serum),poliovirus III; [11],24 millimeters
same,Z (zone diameter of viral inhibition by serum),poliovirus III; [12],23 millimeters
same,Z (zone diameter of viral inhibition by serum),poliovirus III; [13],29 millimeters
same,Z (zone diameter of viral inhibition by serum),poliovirus III; [14],30 millimeters
same,antiviral activity in vivo,poliovirus III; biological activity of serum levels in mice,demonstrated in vivo from the biological activity of serum levels in mice
same,zone of inhibition at 100 µg/mL,Fusarium moniliforme,10 mm
same,zone of inhibition at 1000 µg/mL,Fusarium moniliforme,14 mm
same,titratable groups,electrometric titration,did not indicate the presence of titratable groups
same,zone of inhibition at 1000 µg/mL,Mycobacterium avium,14 mm
same,zone of inhibition at 1000 µg/mL,Escherichia coli,12 mm
same,zone of inhibition at 100 µg/mL,Bacillus subtilis,11 mm
same,zone of inhibition at 1000 µg/mL,Bacillus subtilis,22 mm
same,zone of inhibition at 100 µg/mL,Sarcina lutea,18 mm
same,zone of inhibition at 1000 µg/mL,Sarcina lutea,28 mm
same,zone of inhibition at 1000 µg/mL,Serratia marcescens,14 mm
"CC1CCCCCCCCCC(OC(=O)CCC(=O)O)C(=O)/C=C/C(=O)O1 (centres unmarked) [Factor B, mono(16-methyl-2,5-dioxooxacyclohexadec-3-en-6-yl) succinate]",zone of inhibition at 100 µg/mL,[1],12 mm
same,zone of inhibition at 1000 µg/mL,[1],25 mm
same,zone of inhibition at 1000 µg/mL,Neurospora crassa,13 mm
same,zone of inhibition at 1000 µg/mL,[2],14 mm
same,MIC,Mycoplasma synoviae,12.5 mg/L
same,zone of inhibition at 100 µg/mL,Staphylococcus aureus [3],15 mm
same,zone of inhibition at 1000 µg/mL,Staphylococcus aureus [3],24 mm
same,MIC,Xanthomonas phaseoli,50 mg/L
same,MIC,Candida tropicalis,100 mg/L
same,MIC,Pasteurella multocida,6.25 mg/L
same,MIC,Ceratocystis ulmi,6.25 mg/L
same,MIC,Mycoplasma granularum,50 mg/L
same,MIC,Staphylococcus aureus [6],< 1.56 mg/L
same,MIC,Erwinia amylovora,< 0.78 mg/L
same,MIC,Mycoplasma hyosynoviae,12.5 mg/L
same,MIC,Botrytis cinerea,12.5 mg/L
same,MIC,Mycoplasma hyopneumoniae,12.5 mg/L
same,MIC,Streptococcus faecalis,25 mg/L
same,MIC,Vibrio coli,50 mg/L
same,MIC,[7],6.25 mg/L
same,MIC,Verticillium albo-atrum,50 mg/L
same,zone of inhibition at 1000 µg/mL,Bacillus subtilis,14 mm
same,zone of inhibition at 100 µg/mL,Sarcina lutea,12 mm
same,zone of inhibition at 1000 µg/mL,Sarcina lutea,22 mm
same,MIC,Mycoplasma gallisepticum,3.12 mg/L
"CN1C(=O)C2(Cc3ccccc3)SSSSC1(CO)C(=O)N2C (centres unmarked) [Factor C, 3-benzyl-6-(hydroxymethyl)-1,4-dimethyl-3,6-epitetrathio-2,5-piperazinedione]",zone of inhibition at 100 µg/mL,Type III poliovirus; [15],40 mm
same,zone of inhibition at 1000 µg/mL,Type III poliovirus; [15],50 mm
same,zone of inhibition at 100 µg/mL,[4],40 mm
same,zone of inhibition at 1000 µg/mL,[4],50 mm
same,antiviral activity,[5],"demonstrated against several viruses, including polioviruses and Coxsackie virus; also recorded: antiviral agents; also recorded: antiviral activity"
